Assay results from ChEMBL document CHEMBL1201862, “PubChem BioAssay data set” (2004).
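The compound was tested at five concentrations on cells cultured in 96-well plates, with a 48-hour exposure period. The concentration for 50% growth inhibition is given as GI50.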 Active and inactive are the calls of the source. Rule as the data show it: active = GI50 up to about 1.1 µM and inactive = higher.

Legend:
Assay in all cases: NCI-60 cell line screen, 48 h
SK-MEL-5 = system: SK-MEL-5
CAKI-1 = system: CAKI-1
SNB-19 = system: SNB-19
HL-60 = system: HL-60
OVCAR-5 = system: OVCAR-5
A498 = system: A498
UO-31 = system: UO-31
HCT-15 = system: HCT-15
SW-620 = system: SW-620
KM12 = system: KM12
DLD-1 = system: DLD-1
UACC-62 = system: UACC-62
SNB-75 = system: SNB-75
K562 = system: K562
TK-10 = system: TK-10
A549 = system: A549
SNB-78 = system: SNB-78
SF-539 = system: SF-539
M19-MEL = system: M19-MEL
OVCAR-4 = system: OVCAR-4
NCI-H522 = system: NCI-H522
UACC-257 = system: UACC-257
OVCAR-3 = system: OVCAR-3
DMS-114 = system: DMS-114
IGROV-1 = system: IGROV-1
KM-20L2 = system: KM-20L2
OVCAR-8 = system: OVCAR-8
Malme-3M = system: Malme-3M
LOX IMVI = system: LOX IMVI
ACHN = system: ACHN
SR = system: SR
NCI-H226 = system: NCI-H226
HT-29 = system: HT-29
HOP-92 = system: HOP-92
MOLT-4 = system: MOLT-4
LXFL 529 = system: LXFL 529
HOP-18 = system: HOP-18
EKVX = system: EKVX
COLO 205 = system: COLO 205
U-251 = system: U-251
SK-MEL-28 = system: SK-MEL-28
NCI-H23 = system: NCI-H23
RXF 393 = system: RXF 393
DMS-273 = system: DMS-273
SF-268 = system: SF-268
SN12C = system: SN12C
HOP-62 = system: HOP-62
NCI-H460 = system: NCI-H460
M14 = system: M14
SK-OV-3 = system: SK-OV-3
HCC 2998 = system: HCC 2998
CCRF-CEM = system: CCRF-CEM
RXF 631 = system: RXF 631
RPMI-8226 = system: RPMI-8226
786-0 = system: 786-0
SF-295 = system: SF-295
XF498 = system: XF498
SK-MEL-2 = system: SK-MEL-2

N#Cc1cccnc1Cl
GI50 (SK-MEL-5): > 100 µM (inactive)
GI50 (CAKI-1): > 100 µM (inactive)
GI50 (SNB-19): > 100 µM (inactive)
GI50 (HL-60): > 100 µM (inactive)
GI50 (OVCAR-5): > 100 µM (inactive)
GI50 (A498): > 100 µM (inactive)
GI50 (UO-31): > 100 µM (inactive)
GI50 (HCT-15): > 100 µM
GI50 (SW-620): > 100 µM (inactive)
GI50 (KM12): > 100 µM (inactive)
GI50 (DLD-1): > 100 µM (inactive)
GI50 (UACC-62): > 100 µM (inactive)
GI50 (SNB-75): > 76.6 µM (inactive)
GI50 (K562): > 100 µM (inactive)
GI50 (TK-10): > 100 µM (inactive)
GI50 (A549): > 100 µM (inactive)
GI50 (SNB-78): > 83.4 µM (inactive)
GI50 (SF-539): > 100 µM (inactive)
GI50 (M19-MEL): > 100 µM (inactive)
GI50 (OVCAR-4): > 100 µM (inactive)
GI50 (NCI-H522): > 100 µM (inactive)
GI50 (UACC-257): > 100 µM (inactive)
GI50 (OVCAR-3): > 100 µM (inactive)
GI50 (DMS-114): > 100 µM (inactive)
GI50 (IGROV-1): > 100 µM (inactive)
GI50 (KM-20L2): > 100 µM (inactive)
GI50 (OVCAR-8): > 100 µM (inactive)
GI50 (Malme-3M): > 100 µM (inactive)
GI50 (LOX IMVI): > 100 µM (inactive)
GI50 (ACHN): > 100 µM (inactive)
GI50 (SR): > 100 µM (inactive)
GI50 (NCI-H226): > 100 µM (inactive)
GI50 (HT-29): > 100 µM (inactive)
GI50 (HOP-92): > 100 µM (inactive)
GI50 (MOLT-4): > 100 µM (inactive)
GI50 (LXFL 529): > 100 µM (inactive)
GI50 (HOP-18): > 100 µM (inactive)
GI50 (EKVX): > 100 µM (inactive)
GI50 (COLO 205): > 100 µM (inactive)
GI50 (U-251): > 100 µM (inactive)
GI50 (SK-MEL-28): > 100 µM (inactive)
GI50 (NCI-H23): > 100 µM (inactive)
GI50 (RXF 393): > 100 µM (inactive)
GI50 (DMS-273): > 100 µM (inactive)
GI50 (SF-268): > 100 µM (inactive)
GI50 (SN12C): > 100 µM (inactive)
GI50 (HOP-62): > 31.6 µM (inactive)
GI50 (NCI-H460): > 100 µM (inactive)
GI50 (M14): > 100 µM (inactive)
GI50 (SK-OV-3): > 100 µM (inactive)
GI50 (HCC 2998): > 100 µM (inactive)
GI50 (CCRF-CEM): > 100 µM (inactive)
GI50 (RXF 631): > 100 µM (inactive)
GI50 (RPMI-8226): > 100 µM (inactive)
GI50 (786-0): > 100 µM (inactive)
GI50 (SF-295): > 100 µM (inactive)
GI50 (XF498): > 100 µM (inactive)
GI50 (SK-MEL-2): > 100 µM (inactive)
